Patent US8952024B2, “Herbicidal pyrimidone derivatives” (E I du Pont de Nemours and Company, priority 2009, dated 2015)

Assays:
Type in all cases: in vivo
[1] = system: bermudagrass (Cynodon dactylon); assay: Test B pre-/postemergence plant response
Summary of the method: (§1)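 Visual injury, 0–100 scale (100 = complete control), rated against controls after 13 to 15 days in greenhouse. Pre-emergence: seeds in loam/sand soil, treated at planting. Post-emergence: 1- to 4-leaf plants (2 to 18 cm) in peat/vermiculite medium. Compounds formulated in non-phytotoxic solvent with surfactant.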

[2] = system: cocklebur (Xanthium strumarium); assay: Test B pre-/postemergence plant response
Summary of the method: as §1

[3] = system: goosegrass (Eleusine indica); assay: Test B pre-/postemergence plant response
Summary of the method: as §1

[4] = system: green foxtail (Setaria viridis); assay: Test B pre-/postemergence plant response
Summary of the method: as §1

[5] = system: lambsquarters (Chenopodium album); assay: Test B pre-/postemergence plant response
Summary of the method: as §1

[6] = system: large crabgrass (Digitaria sanguinalis); assay: Test B pre-/postemergence plant response
Summary of the method: as §1

[7] = system: morningglory (Ipomoea coccinea); assay: Test B pre-/postemergence plant response
Summary of the method: as §1

[8] = system: wheat (Triticum aestivum); assay: Test B pre-/postemergence plant response
Summary of the method: as §1

wild oat (Avena fatua) = assay: Test B pre-/postemergence plant response
Summary of the method: as §1

[9] = system: yellow nutsedge (Cyperus esculentus); assay: Test B pre-/postemergence plant response
Summary of the method: as §1

[10] = system: barnyardgrass (Echinochloa crus-galli); assay: Test B flooded paddy test; details: for Plant response rating, Flood, Barnyardgrass: 250 g ai/ha, flooded paddy test, visual rating on 0 to 100 scale (0 no effect, 100 complete control) after 13 to 15 days; for Plant response rating, Barnyardgrass: Flood (flooded paddy test), 13 to 15 days
Summary of the method: (§2)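 2-leaf seedlings; pots flooded 3 cm over soil at treatment; cpd dosed into floodwater, depth kept constant. Greenhouse 13–15 d. Visual rating vs untreated controls, 0 = no effect, 100 = complete control.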

[11] = system: umbrella sedge (Cyperus difformis); assay: Test B flooded paddy test; details: for Plant response rating, Flood, Sedge, Umbrella: 250 g ai/ha, flooded paddy test, visual rating on 0 to 100 scale (0 no effect, 100 complete control) after 13 to 15 days; for Plant response rating, Sedge, Umbrella: Flood (flooded paddy test), 13 to 15 days
Summary of the method: as §2

[12] = 62 g ai/ha, postemergence, 0 is no effect, 100 is complete control, 13 to 15 days
[13] = Postemergence, 31 g ai/ha, 0 to 100 scale (0 no effect, 100 complete control)
[14] = Postemergence, 125 g ai/ha, scale 0 to 100 (0 no effect, 100 complete control)
[15] = Postemergence, 250 g ai/ha, scale 0 to 100 (0 no effect, 100 complete control), 13 to 15 days
[16] = 62 g ai/ha, scale of 0 to 100 where 0 is no effect and 100 is complete control
[17] = 125 g ai/ha, scale 0 to 100, 0 is no effect, 100 is complete control
[18] = Flood, 31 g ai/ha, scale 0 to 100 (0 no effect, 100 complete control)
[19] = 250 g ai/ha, Preemergence, 0 to 100 scale
[20] = Postemergence, 31 g ai/ha, scale 0 to 100 (0 no effect, 100 complete control)
[21] = Postemergence, 62 g ai/ha, scale 0 (no effect) to 100 (complete control), 13 to 15 days
[22] = Postemergence, 250 g ai/ha, scale 0 to 100
[23] = Preemergence, 31 g ai/ha, scale 0 to 100 (0 no effect, 100 complete control)
[24] = Preemergence, 62 g ai/ha, scale 0 to 100 (0 no effect, 100 complete control)
[25] = Preemergence, 125 g ai/ha, 0 to 100 scale
[26] = Postemergence, 125 g ai/ha, visual rating after 13 to 15 days, scale 0 (no effect) to 100 (complete control)
[27] = 31 g ai/ha, scale of 0 to 100 where 0 is no effect and 100 is complete control
[28] = 62 g ai/ha, scale 0 to 100, 0 is no effect, 100 is complete control

COCCn1c(-c2cccc(Cl)c2)ncc(C(=O)C2=C(O)CCCC2=O)c1=O [Compound 147]
Bermudagrass plant response rating (0 to 100 scale) [1, 12]: 90 | Plant response rating, Bermudagrass [1, 13]: 75 | Plant response rating, Bermudagrass [1, 14]: 95 | Plant response rating, Bermudagrass [1, 15]: 98 | Cocklebur plant response rating (0 to 100 scale) [2, 12]: 75 | Plant response rating, Cocklebur [2, 13]: 50 | Plant response rating, Cocklebur [2, 14]: 90 | Plant response rating, Cocklebur [2, 15]: 100 | Goosegrass plant response rating (0 to 100 scale) [3, 12]: 70 | Plant response rating, Goosegrass [3, 13]: 35 | Plant response rating, Goosegrass [3, 14]: 80 | Plant response rating, Goosegrass [3, 15]: 95 | Foxtail, Green plant response rating (0 to 100 scale) [4, 12]: 65 | Plant response rating, Foxtail, Green [4, 13]: 40 | Plant response rating, Foxtail, Green [4, 14]: 80 | Plant response rating, Foxtail, Green [4, 15]: 90 | Lambsquarters plant response rating (0 to 100 scale) [5, 12]: 95 | Plant response rating, Lambsquarters [5, 13]: 85 | Plant response rating, Lambsquarters [5, 14]: 98 | Plant response rating, Lambsquarters [5, 15]: 100 | Crabgrass, Large plant response rating (0 to 100 scale) [6, 12]: 75 | Plant response rating, Crabgrass, Large [6, 13]: 60 | Plant response rating, Crabgrass, Large [6, 14]: 85 | Plant response rating, Crabgrass, Large [6, 15]: 90 | Morningglory plant response rating (0 to 100 scale) [7, 12]: 50 | Plant response rating, Morningglory [7, 13]: 50 | Plant response rating, Morningglory [7, 14]: 65 | Plant response rating, Morningglory [7, 15]: 100 | Wheat plant response rating (0 to 100 scale) [8, 12]: 5 | Plant response rating, Wheat [8, 13]: 0 | Plant response rating, Wheat [8, 14]: 5 | Plant response rating, Wheat [8, 15]: 10 | Oat, Wild plant response rating (0 to 100 scale) (wild oat (Avena fatua); [12]): 10 | Plant response rating, Oat, Wild (wild oat (Avena fatua); [13]): 5 | Plant response rating, Oat, Wild (wild oat (Avena fatua); [14]): 20 | Plant response rating, Oat, Wild (wild oat (Avena fatua); [15]): 45 | Nutsedge, Yellow plant response rating (0 to 100 scale) [9, 12]: 60 | Plant response rating, Nutsedge, Yellow [9, 13]: 50 | Plant response rating, Nutsedge, Yellow [9, 14]: 70 | Plant response rating, Nutsedge, Yellow [9, 15]: 75 | Plant response rating, Flood, Barnyardgrass [10]: 75 | Plant response rating, Barnyardgrass [10, 16]: 10 | Plant response rating, Barnyardgrass [10, 17]: 45 | Barnyardgrass plant response rating [10, 18]: 0 | Plant response rating, Flood, Sedge, Umbrella [11]: 80 | Plant response rating, Sedge, Umbrella [11, 16]: 40 | Plant response rating, Sedge, Umbrella [11, 17]: 40 | Sedge, Umbrella plant response rating [11, 18]: 0

Cc1ccccc1-n1c(-c2ccccc2)ncc(C(=O)C2=C(O)CCCC2=O)c1=O [Compound 12]
Plant response rating, Bermudagrass [1, 19]: 100 | Plant response rating, Bermudagrass [1, 20]: 65 | Plant response rating, Bermudagrass [1, 21]: 85 | Plant response rating, Bermudagrass ([1]; Postemergence, 125 g ai/ha, scale 0 to 100 (0 no effect, 100 complete control), 13 to 15 days): 98 | Bermudagrass plant response rating [1, 22]: 100 | Plant response rating, Bermudagrass [1, 23]: 100 | Plant response rating, Bermudagrass [1, 24]: 100 | Bermudagrass plant response rating [1, 25]: 100 | Plant response rating, Cocklebur [2, 19]: 100 | Plant response rating, Cocklebur [2, 20]: 70 | Plant response rating, Cocklebur [2, 21]: 98 | Plant response rating, Cocklebur [2, 26]: 100 | Cocklebur plant response rating [2, 22]: 100 | Plant response rating, Cocklebur [2, 23]: 25 | Plant response rating, Cocklebur [2, 24]: 80 | Cocklebur plant response rating [2, 25]: 98 | Plant response rating, Goosegrass [3, 19]: 100 | Plant response rating, Goosegrass [3, 20]: 70 | Plant response rating, Goosegrass [3, 21]: 85 | Plant response rating, Goosegrass [3, 26]: 98 | Goosegrass plant response rating [3, 22]: 100 | Plant response rating, Goosegrass [3, 23]: 85 | Goosegrass plant response rating [3, 25]: 100 | Plant response rating, Foxtail, Green [4, 19]: 80 | Plant response rating, Foxtail, Green [4, 20]: 40 | Plant response rating, Foxtail, Green [4, 21]: 60 | Plant response rating, Foxtail, Green [4, 26]: 70 | Foxtail, Green plant response rating [4, 22]: 70 | Plant response rating, Foxtail, Green [4, 23]: 0 | Plant response rating, Foxtail, Green [4, 24]: 0 | Foxtail, Green plant response rating [4, 25]: 40 | Plant response rating, Lambsquarters [5, 19]: 100 | Plant response rating, Lambsquarters [5, 20]: 80 | Plant response rating, Lambsquarters [5, 21]: 85 | Plant response rating, Lambsquarters [5, 26]: 98 | Lambsquarters plant response rating [5, 22]: 98 | Plant response rating, Lambsquarters [5, 23]: 100 | Plant response rating, Lambsquarters [5, 24]: 100 | Lambsquarters plant response rating [5, 25]: 100 | Plant response rating, Crabgrass, Large [6, 19]: 100 | Plant response rating, Crabgrass, Large [6, 20]: 65 | Plant response rating, Crabgrass, Large [6, 21]: 75 | Plant response rating, Crabgrass, Large [6, 26]: 80 | Crabgrass, Large plant response rating [6, 22]: 90 | Plant response rating, Crabgrass, Large [6, 23]: 0 | Plant response rating, Crabgrass, Large [6, 24]: 90 | Crabgrass, Large plant response rating [6, 25]: 100 | Plant response rating, Morningglory [7, 19]: 100 | Plant response rating, Morningglory [7, 20]: 15 | Plant response rating, Morningglory [7, 21]: 60 | Plant response rating, Morningglory [7, 26]: 70 | Morningglory plant response rating [7, 22]: 95 | Plant response rating, Morningglory [7, 23]: 40 | Plant response rating, Morningglory [7, 24]: 55 | Morningglory plant response rating [7, 25]: 85 | Plant response rating, Wheat [8, 19]: 0 | Plant response rating, Wheat [8, 20]: 0 | Plant response rating, Wheat [8, 21]: 0 | Plant response rating, Wheat [8, 26]: 0 | Wheat plant response rating [8, 22]: 0 | Plant response rating, Wheat [8, 23]: 0 | Plant response rating, Wheat [8, 24]: 0 | Wheat plant response rating [8, 25]: 0 | Plant response rating, Oat, Wild (wild oat (Avena fatua); [19]): 5 | Plant response rating, Oat, Wild (wild oat (Avena fatua); [20]): 0 | Plant response rating, Oat, Wild (wild oat (Avena fatua); [21]): 5 | Plant response rating, Oat, Wild (wild oat (Avena fatua); [26]): 20 | Oat, Wild plant response rating (wild oat (Avena fatua); [22]): 20 | Plant response rating, Oat, Wild (wild oat (Avena fatua); [23]): 0 | Plant response rating, Oat, Wild (wild oat (Avena fatua); [24]): 0 | Oat, Wild plant response rating (wild oat (Avena fatua); [25]): 0 | Plant response rating, Nutsedge, Yellow [9, 19]: 90 | Plant response rating, Nutsedge, Yellow [9, 20]: 15 | Plant response rating, Nutsedge, Yellow [9, 21]: 55 | Plant response rating, Nutsedge, Yellow [9, 26]: 65 | Nutsedge, Yellow plant response rating [9, 22]: 80 | Plant response rating, Nutsedge, Yellow [9, 23]: 25 | Plant response rating, Nutsedge, Yellow [9, 24]: 60 | Nutsedge, Yellow plant response rating [9, 25]: 75 | Plant response rating, Flood, Barnyardgrass [10]: 0 | Plant response rating, Barnyardgrass [10, 27]: 0 | Plant response rating, Barnyardgrass [10, 28]: 0 | Plant response rating, Barnyardgrass [10, 17]: 0 | Plant response rating, Flood, Sedge, Umbrella [11]: 65 | Plant response rating, Sedge, Umbrella [11, 27]: 20 | Plant response rating, Sedge, Umbrella [11, 28]: 40 | Plant response rating, Sedge, Umbrella [11, 17]: 50
